This note sets out measurements from ChEMBL document CHEMBL1933061, “Discovery of a novel class of aldol-derived 1,2,3-triazoles: potent and selective inhibitors of human cytochrome P450 19A1 (aromatase)” (Bioorg Med Chem Lett, 2012).

Usually Ki stands for a measure of affinity in units of concentration, obtained from inhibition or displacement.

One data set has as its target T1, Cytochrome P450 1A1 (Homo sapiens, UniProt P04798).
T1 sequence (P04798 whole entry): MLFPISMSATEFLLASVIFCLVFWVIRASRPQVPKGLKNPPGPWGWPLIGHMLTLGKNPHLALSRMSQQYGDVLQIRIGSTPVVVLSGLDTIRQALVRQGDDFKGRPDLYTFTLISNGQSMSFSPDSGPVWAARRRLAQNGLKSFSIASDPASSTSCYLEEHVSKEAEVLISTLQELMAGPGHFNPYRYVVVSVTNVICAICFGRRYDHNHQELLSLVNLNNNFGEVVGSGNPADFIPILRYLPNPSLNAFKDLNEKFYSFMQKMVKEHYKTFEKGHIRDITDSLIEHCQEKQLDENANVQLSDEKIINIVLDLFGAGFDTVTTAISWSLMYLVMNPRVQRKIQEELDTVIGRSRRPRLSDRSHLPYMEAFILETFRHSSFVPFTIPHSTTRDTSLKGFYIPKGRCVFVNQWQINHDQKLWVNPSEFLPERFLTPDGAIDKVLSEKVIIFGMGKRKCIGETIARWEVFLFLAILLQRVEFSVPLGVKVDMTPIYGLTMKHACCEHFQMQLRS
The data set is described as follows: Inhibition of CYP1A1. It is filed as ADME.

The next data set deals with Cytochrome P450 3A4 (Homo sapiens, UniProt P08684). The data set is described as follows: Inhibition of CYP3A4 at 10 uM. It is filed as ADME.
Data set [1] deals with T2, Aromatase (Homo sapiens, UniProt P11511).
T2 sequence (P11511 whole entry): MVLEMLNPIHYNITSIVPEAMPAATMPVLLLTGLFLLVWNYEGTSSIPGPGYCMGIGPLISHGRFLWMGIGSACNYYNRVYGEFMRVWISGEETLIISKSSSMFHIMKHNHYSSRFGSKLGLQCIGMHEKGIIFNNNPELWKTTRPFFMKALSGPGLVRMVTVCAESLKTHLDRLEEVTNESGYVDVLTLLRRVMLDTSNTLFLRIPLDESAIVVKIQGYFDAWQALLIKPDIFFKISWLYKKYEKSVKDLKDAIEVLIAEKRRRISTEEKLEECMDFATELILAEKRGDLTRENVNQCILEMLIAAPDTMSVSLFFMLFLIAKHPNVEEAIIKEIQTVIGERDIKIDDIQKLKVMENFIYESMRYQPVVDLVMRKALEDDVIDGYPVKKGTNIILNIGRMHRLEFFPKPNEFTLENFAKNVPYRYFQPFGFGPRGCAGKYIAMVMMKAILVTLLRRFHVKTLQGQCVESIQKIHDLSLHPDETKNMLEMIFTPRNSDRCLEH
The data set is described as follows: Inhibition of human recombinant aromatase assessed as conversion of O-dibenzylfluorescein benzyl ester substrate to fluorescein byproduct by fluorometric assay. The note with it: for inhibition (INH): human.

Data set [2] concerns the target T2, Aromatase. Description: Inhibition of human recombinant aromatase assessed as conversion of O-dibenzylfluorescein benzyl ester substrate to fluorescein byproduct at 10 uM by fluorometric assay.
A further data set addresses Cytochrome P450 2D6 (Homo sapiens, UniProt P10635). Description: Inhibition of CYP2D6. It is filed as ADME.

Sequence of Cytochrome P450 3A4 (P08684 whole entry): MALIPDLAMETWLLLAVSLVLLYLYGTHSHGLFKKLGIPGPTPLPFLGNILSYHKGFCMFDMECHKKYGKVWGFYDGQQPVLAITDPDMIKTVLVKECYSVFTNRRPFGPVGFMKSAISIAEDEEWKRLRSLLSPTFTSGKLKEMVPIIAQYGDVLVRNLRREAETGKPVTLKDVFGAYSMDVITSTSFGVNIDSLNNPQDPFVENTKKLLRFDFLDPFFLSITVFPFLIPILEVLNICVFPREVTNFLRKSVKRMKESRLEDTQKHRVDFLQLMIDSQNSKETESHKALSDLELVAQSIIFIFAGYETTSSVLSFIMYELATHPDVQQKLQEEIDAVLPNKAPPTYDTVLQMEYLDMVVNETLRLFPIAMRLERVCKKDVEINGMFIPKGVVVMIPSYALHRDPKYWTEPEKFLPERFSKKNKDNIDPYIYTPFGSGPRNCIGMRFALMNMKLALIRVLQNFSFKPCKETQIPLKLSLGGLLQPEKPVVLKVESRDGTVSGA
Sequence of Cytochrome P450 2D6 (P10635 whole entry): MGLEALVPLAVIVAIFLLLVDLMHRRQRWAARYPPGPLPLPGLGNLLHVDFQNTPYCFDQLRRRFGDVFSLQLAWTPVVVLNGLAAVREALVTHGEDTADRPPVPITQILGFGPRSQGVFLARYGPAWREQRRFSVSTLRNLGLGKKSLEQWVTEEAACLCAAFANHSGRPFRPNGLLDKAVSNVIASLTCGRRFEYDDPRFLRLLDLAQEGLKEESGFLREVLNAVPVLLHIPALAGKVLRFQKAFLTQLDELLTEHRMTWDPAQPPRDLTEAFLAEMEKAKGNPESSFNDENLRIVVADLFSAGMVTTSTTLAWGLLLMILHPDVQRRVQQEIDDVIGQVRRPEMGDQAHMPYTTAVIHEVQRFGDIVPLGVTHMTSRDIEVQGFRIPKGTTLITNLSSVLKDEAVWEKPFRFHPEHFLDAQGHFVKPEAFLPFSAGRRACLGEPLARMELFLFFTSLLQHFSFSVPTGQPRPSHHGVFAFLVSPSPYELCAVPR

As for `O=C(c1ccccc1)C(Cn1ccnn1)c1ccccc1` (stereo unspecified), the inhibition constant (Ki) on Cytochrome P450 1A1 was 5.37 µM; on Aromatase [1], 1 µM. Besides, the “inhibition (INH)” value against Cytochrome P450 3A4 was “Not Active”.

`COCO[C@@H](c1ccccc1)[C@@H](CN=[N+]=[N-])c1ccccc1` (relative stereo): the “inhibition (INH)” value on Aromatase [2] and on Aromatase [1] was “Not Active” in each case.

As for `COCO[C@@H](c1ccccc1)[C@@H](Cn1cc([Si](C)(C)C)nn1)c1ccccc1` (relative stereo), the “inhibition (INH)” value on Aromatase [2] and at Aromatase [1] was “Not Active” in each case.

On to `COCO[C@@H](c1ccccc1)[C@@H](Cn1ccnn1)c1ccccc1` (relative stereo), for which the Ki at Cytochrome P450 2D6 was 1120 µM; on Aromatase [1], 0.79 µM.

Regarding `O[C@@H](c1ccccc1)[C@@H](Cn1ccnn1)c1ccccc1` (relative stereo), the “inhibition (INH)” value at Aromatase [2] is on record as “Not Active”.

For `O=C(O[C@@H](c1ccccc1)[C@@H](Cn1ccnn1)c1ccccc1)c1ccccc1` (relative stereo), the Ki is 30.9 µM at Cytochrome P450 1A1 and 0.1 µM at Aromatase [1]. Also, the “inhibition (INH)” value against Cytochrome P450 3A4 is on record as “Not Active”.

As to `CC(=O)O[C@@H](c1ccccc1)[C@@H](Cn1ccnn1)c1ccccc1` (relative stereo), the “inhibition (INH)” value against Cytochrome P450 3A4 was “Not Active”. Moreover, the Ki on Aromatase [1] stood at 0.06 µM.

As for `COCO[C@@H](c1ccccc1)[C@@H](CN1CCOCC1)c1ccccc1` (relative stereo), at Aromatase [2], the “inhibition (INH)” value was “Not Active”.

As for `COCO[C@@H](c1ccccc1)[C@@H](CN)c1ccccc1` (relative stereo), the “inhibition (INH)” value at Aromatase [2] is “Not Active”.

Consider `COCO[C@H](c1ccccc1)[C@@H](CN=[N+]=[N-])c1ccccc1` (relative stereo), for which, on Aromatase [2], the “inhibition (INH)” value is “Not Active”.

With `COCO[C@H](c1ccccc1)[C@@H](Cn1cc([Si](C)(C)C)nn1)c1ccccc1` (relative stereo), the “inhibition (INH)” value at Aromatase [2] is “Not Active”.

For `COCO[C@H](c1ccccc1)[C@@H](Cn1ccnn1)c1ccccc1` (relative stereo), the “inhibition (INH)” value against Cytochrome P450 3A4 is listed as “Not Active”. Also, on Aromatase [1], the Ki was found to be 0.08 µM.

Regarding `O[C@H](c1ccccc1)[C@@H](Cn1ccnn1)c1ccccc1` (relative stereo), the Ki is 708 µM at Cytochrome P450 2D6 and 0.05 µM on Aromatase [1]. Further, the “inhibition (INH)” value against Cytochrome P450 3A4 is “Not Active”.

For `CC(=O)O[C@H](c1ccccc1)[C@@H](Cn1ccnn1)c1ccccc1` (relative stereo), the “inhibition (INH)” value against Cytochrome P450 3A4 is “Not Active”. In addition, the Ki on Aromatase [1] came out at 0.25 µM.
